Measurements taken from BindingDB's records for doi:10.1111/j.1432-1033.1994.00489.x (Universit&Eacute, 1994).

Target: Histamine H1 receptor (Cavia porcellus, UniProt P31389)
Sequence (P31389 whole entry): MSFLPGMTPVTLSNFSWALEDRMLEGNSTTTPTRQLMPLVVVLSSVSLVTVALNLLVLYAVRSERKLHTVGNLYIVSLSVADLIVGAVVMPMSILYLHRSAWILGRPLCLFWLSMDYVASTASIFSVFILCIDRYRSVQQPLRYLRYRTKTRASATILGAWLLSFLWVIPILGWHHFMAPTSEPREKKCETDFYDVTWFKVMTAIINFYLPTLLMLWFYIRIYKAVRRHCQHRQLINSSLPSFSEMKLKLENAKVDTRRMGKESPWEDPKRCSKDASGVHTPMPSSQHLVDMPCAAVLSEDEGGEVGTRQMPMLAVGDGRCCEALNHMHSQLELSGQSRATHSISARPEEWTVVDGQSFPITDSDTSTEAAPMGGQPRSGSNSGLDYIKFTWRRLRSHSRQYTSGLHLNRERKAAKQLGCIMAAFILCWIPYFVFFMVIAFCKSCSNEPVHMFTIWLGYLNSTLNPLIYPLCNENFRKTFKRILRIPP

Ki [nM]	SMILES
0.31	Cc1ccc(/C(=C\CN2CCCC2)c2ccccn2)cc1 [Actahist]
12.6	O=C(O)COCCN1CCN(C(c2ccccc2)c2ccc(Cl)cc2)CC1 (configuration not stated)
